ChEMBL document CHEMBL5241090, “A comprehensive overview of β-carbolines and its derivatives as anticancer agents” (Eur J Med Chem, 2021)
pIC50: −log10 of the molar value. Values after ≈ are worked out from the molar mass of the structure shown. Values belong to the compound of their own block, whether it stands above or below them.

Legend:
HT-1080 = test: Cytotoxicity against human HT-1080 cells; type: functional, cell-based
HepG2 [1] = test: Cytotoxicity against human HepG2 cells assessed as reduction in optical density by MTT assay; type: functional, cell-based
[2] = Cytotoxicity against human 95-D cells assessed as reduction in optical density by MTT assay; type: functional, cell-based
SGC-7901 = test: Cytotoxicity against human SGC-7901 cells assessed as reduction in optical density by MTT assay; type: functional, cell-based
DNA topoisomerase 1 = molecular target: T1, DNA topoisomerase 1 (Homo sapiens, UniProt P11387); test: Inhibition of Topoisomerase 1 (unknown origin)
T1 sequence (P11387 whole entry): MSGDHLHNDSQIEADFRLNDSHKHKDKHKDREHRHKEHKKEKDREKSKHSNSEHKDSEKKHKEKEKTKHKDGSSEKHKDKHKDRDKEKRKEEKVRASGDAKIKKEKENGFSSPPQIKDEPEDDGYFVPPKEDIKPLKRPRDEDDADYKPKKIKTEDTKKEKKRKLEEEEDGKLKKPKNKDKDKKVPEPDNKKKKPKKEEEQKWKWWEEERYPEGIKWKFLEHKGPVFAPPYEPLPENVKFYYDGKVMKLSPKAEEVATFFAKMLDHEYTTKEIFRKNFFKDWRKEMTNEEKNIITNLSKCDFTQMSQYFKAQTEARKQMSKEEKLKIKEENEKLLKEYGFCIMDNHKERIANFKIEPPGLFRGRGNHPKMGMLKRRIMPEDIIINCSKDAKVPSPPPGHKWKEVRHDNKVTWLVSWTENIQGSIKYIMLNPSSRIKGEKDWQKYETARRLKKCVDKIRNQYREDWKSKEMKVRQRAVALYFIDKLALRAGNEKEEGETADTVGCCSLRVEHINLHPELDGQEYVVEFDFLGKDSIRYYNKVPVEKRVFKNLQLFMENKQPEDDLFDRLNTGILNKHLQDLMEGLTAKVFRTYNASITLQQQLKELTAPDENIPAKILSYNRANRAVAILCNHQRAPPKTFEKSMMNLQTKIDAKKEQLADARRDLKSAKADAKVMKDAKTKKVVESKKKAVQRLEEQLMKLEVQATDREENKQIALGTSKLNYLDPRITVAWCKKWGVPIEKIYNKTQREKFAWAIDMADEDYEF

[3] = molecular target: T2, Kinesin-like protein KIF11 (Homo sapiens, UniProt P52732); test: Inhibition of KSP (unknown origin)
T2 sequence (P52732 whole entry): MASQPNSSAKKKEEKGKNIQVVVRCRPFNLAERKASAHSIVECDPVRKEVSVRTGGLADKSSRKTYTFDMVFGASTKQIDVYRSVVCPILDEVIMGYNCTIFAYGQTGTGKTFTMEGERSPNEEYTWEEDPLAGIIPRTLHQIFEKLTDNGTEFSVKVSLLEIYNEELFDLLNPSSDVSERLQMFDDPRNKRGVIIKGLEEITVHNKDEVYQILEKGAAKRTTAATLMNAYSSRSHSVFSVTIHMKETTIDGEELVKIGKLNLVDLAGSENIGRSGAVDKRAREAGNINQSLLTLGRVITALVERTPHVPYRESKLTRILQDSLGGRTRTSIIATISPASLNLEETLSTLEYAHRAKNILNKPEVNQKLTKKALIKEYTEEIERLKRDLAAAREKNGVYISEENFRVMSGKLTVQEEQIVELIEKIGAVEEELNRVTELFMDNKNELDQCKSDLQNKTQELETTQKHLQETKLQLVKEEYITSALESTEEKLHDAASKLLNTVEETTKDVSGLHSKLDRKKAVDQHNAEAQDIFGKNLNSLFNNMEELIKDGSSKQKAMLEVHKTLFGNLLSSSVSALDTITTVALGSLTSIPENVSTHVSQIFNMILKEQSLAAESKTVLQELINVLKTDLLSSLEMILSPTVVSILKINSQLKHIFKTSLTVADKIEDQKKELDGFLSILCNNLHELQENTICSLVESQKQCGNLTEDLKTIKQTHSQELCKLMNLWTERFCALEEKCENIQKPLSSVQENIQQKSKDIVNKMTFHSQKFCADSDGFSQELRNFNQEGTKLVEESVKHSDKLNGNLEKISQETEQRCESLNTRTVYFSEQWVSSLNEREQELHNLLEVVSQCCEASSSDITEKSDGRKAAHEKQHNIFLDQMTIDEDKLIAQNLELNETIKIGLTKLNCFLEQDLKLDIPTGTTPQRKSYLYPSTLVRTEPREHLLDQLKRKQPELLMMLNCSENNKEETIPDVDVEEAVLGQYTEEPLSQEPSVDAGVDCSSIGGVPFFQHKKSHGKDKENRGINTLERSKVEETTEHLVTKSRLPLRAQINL

KB = test: Cytotoxicity against human KB cells assessed as inhibition of growth measured after 1 day by hemacytometer; type: functional; settings: 24 h, read-out: ED50 (the source's name)
Keratinocyte = test: Cytotoxicity against guinea pig ear keratinocytes using [3H]thymidine by liquid scintillation counting analysis; type: functional, cell-based; settings: Cavia porcellus
DU-145 [4] = test: Antiproliferative activity against human DU-145 cells incubated for 48 hrs by MTT assay; type: functional, cell-based; settings: DU-145, 48 h
HCC1395 = test: Antiproliferative activity against human HCC1395 cells incubated for 48 hrs by MTT assay; type: functional, cell-based; settings: HCC1395, 48 h
Huh-7 = test: Cytotoxicity against human Huh-7 cells; type: functional, cell-based
HCT-116 = test: Cytotoxicity against human HCT-116 cells; type: functional, cell-based
MCF7 = test: Cytotoxicity against human MCF7 cells; type: functional, cell-based
MG-63 = test: Cytotoxicity against human MG-63 cells; type: functional, cell-based
NCI-H187 = test: Cytotoxicity against human NCI-H187 cells; type: functional, cell-based
ACHN = test: Cytotoxicity against human ACHN cells; type: functional, cell-based
DU-145 [5] = test: Cytotoxicity against human DU-145 cells; type: functional, cell-based
A549 [6] = test: Cytotoxicity against human A549 cells; type: functional, cell-based
HeLa = test: Cytotoxicity against human HeLa cells; type: functional, cell-based
MDA-MB-231 = test: Growth inhibition of human MDA-MB-231 cells incubated for 72 hrs by SRB assay; type: functional, cell-based; settings: MDA-MB-231, 72 h
HT-29 = test: Growth inhibition of human HT-29 cells incubated for 72 hrs by SRB assay; type: functional, cell-based; settings: HT-29, 72 h
A549 [7] = test: Growth inhibition of human A549 cells incubated for 72 hrs by SRB assay; type: functional, cell-based; settings: A549, 72 h
HepG2 [8] = test: Cytotoxicity against human HepG2 cells; type: functional, cell-based; settings: read-out: TC50 (the source's name)
OVCAR-3 = test: Cytotoxicity against human OVCAR-3 cells; type: functional, cell-based
Col2 = test: Cytotoxicity against human Col2 cells; type: functional, cell-based
[9] = Cytotoxicity against human Lu1 cells; type: functional, cell-based
HUVEC = test: Cytotoxicity against human HUVEC cells; type: functional, cell-based
LNCaP = test: Cytotoxicity against human LNCaP cells; type: functional, cell-based
TERT-RPE1 = test: Cytotoxicity against human TERT-RPE1 cells; type: functional, cell-based; settings: RPE-1

SMILES: COc1c(O)ccc2c1c1ccnc3ccc(=O)n2c31
pIC50 (HT-1080): 5.14

SMILES: COc1ccc2c3ccnc(C)c3n(C)c2c1
pIC50 (HepG2 [1]): > 4.44 | pIC50 [2]: > 4.44 | pIC50 (SGC-7901): > 4.44

pIC50 (DNA topoisomerase 1): 5.11 | pIC50 [3]: 5.06
SMILES: CSc1nnc(-c2cc3c([nH]c4ccccc43)c(-c3cccc(O)c3)n2)o1

SMILES: COc1cnc2ccc(=O)n3c4cccc(O)c4c1c23
EC50 (KB): 2 µg/mL (≈ 7.51 µM)

SMILES: COc1ccc2c3ccnc4c(OC)cc(=O)n(c2c1)c43
pIC50 (HT-1080): 5.30

SMILES: COc1cnc2ccc(=O)n3c4ccccc4c1c23
IC50 (Keratinocyte): 5.76 µg/mL (≈ 23 µM)

IC50 (DU-145 [4]): 1.58 µg/mL (≈ 6.31 µM) | IC50 (HCC1395): 14.7 µg/mL (≈ 58.7 µM)
SMILES: COc1ccc2c(c1)c1ccnc3ccc(=O)n2c31

SMILES: Cc1ccc(-c2nc(NCc3ccc(C(=O)NO)cc3)cc3c2[nH]c2ccccc23)cc1
pIC50 (Huh-7): 6.28 | pIC50 (HCT-116): 6.28 | pIC50 (MCF7): 6.28

SMILES: O=C(c1cc2c([nH]c3ccccc32)c(-c2ccccc2)n1)N1CCN(S(=O)(=O)c2ccc(Cl)cc2)CC1
pIC50 (MG-63): 5.55

SMILES: C[C@H](O)c1nc(O)cc2c1[nH]c1ccccc12
pIC50 (NCI-H187): 4.10

SMILES: CC(=O)N1N=C(c2ccco2)CC1c1cc2c([nH]c3ccccc32)c(-c2ccc(C(F)(F)F)cc2)n1 (stereo not given)
pIC50 (ACHN): 5.71 | pIC50 (DU-145 [5]): 5.71 | pIC50 (A549 [6]): 5.71 | pIC50 (MCF7): 5.71 | pIC50 (HeLa): 5.71

IC50 (MDA-MB-231): 90 µg/mL (≈ 241 µM) | IC50 (HT-29): 35 µg/mL (≈ 93.7 µM) | IC50 (A549 [7]): 100 µg/mL (≈ 268 µM)
SMILES: COc1ccc2[nH]c3cnc(-c4c[nH]c5cc(O)ccc45)c(C(=O)O)c3c2c1

SMILES: O=C(O)[C@@H](O)Cc1nccc2c1[nH]c1ccccc12
CC50 (HepG2 [8]): > 50000 nM

SMILES: CNCC(O)c1ccc(O)c(C2(O)c3ccccc3-[n+]3ccc4c([nH]c5ccccc54)c32)c1 (stereo not given)
IC50 (A549 [6]): 27 µg/mL | IC50 (OVCAR-3): 27 µg/mL | IC50 (MCF7): 27 µg/mL

SMILES: COc1cc2c3ccccc3n3c(=O)ccc(n1)c23
pIC50 (Col2): 6.30 | pIC50 [9]: 6.30 | pIC50 (HUVEC): 6.30 | pIC50 (LNCaP): 6.30 | pIC50 (TERT-RPE1): 6.30

SMILES: O=C(/C=C/c1cc2c([nH]c3ccccc32)c(-c2ccc(C(F)(F)F)cc2)n1)c1ccco1
pIC50 (ACHN): 5.72 | pIC50 (DU-145 [5]): 5.72 | pIC50 (A549 [6]): 5.72 | pIC50 (MCF7): 5.72 | pIC50 (HeLa): 5.72

SMILES: O=C(c1cc2c([nH]c3ccccc32)c(-c2ccccc2)n1)N1CCN(S(=O)(=O)c2ccccc2)CC1
pIC50 (MG-63): 6.23

SMILES: COc1cccc2c1c1c(O)cnc3ccc(=O)n2c31
EC50 (KB): 2 µg/mL (≈ 7.51 µM)
